target: human Nav1.7 (Homo sapiens (Human), UniProt Q15858); experiment: FLIPR or FLIPR TETRA sodium dye assay with KCl and test article pre-incubation; assay type: cell-based; settings: read-out: Nav1.7 IC50 (μM) ± SEM
Sequence (Q15858 other isoform, or with tags, fused parts or gaps): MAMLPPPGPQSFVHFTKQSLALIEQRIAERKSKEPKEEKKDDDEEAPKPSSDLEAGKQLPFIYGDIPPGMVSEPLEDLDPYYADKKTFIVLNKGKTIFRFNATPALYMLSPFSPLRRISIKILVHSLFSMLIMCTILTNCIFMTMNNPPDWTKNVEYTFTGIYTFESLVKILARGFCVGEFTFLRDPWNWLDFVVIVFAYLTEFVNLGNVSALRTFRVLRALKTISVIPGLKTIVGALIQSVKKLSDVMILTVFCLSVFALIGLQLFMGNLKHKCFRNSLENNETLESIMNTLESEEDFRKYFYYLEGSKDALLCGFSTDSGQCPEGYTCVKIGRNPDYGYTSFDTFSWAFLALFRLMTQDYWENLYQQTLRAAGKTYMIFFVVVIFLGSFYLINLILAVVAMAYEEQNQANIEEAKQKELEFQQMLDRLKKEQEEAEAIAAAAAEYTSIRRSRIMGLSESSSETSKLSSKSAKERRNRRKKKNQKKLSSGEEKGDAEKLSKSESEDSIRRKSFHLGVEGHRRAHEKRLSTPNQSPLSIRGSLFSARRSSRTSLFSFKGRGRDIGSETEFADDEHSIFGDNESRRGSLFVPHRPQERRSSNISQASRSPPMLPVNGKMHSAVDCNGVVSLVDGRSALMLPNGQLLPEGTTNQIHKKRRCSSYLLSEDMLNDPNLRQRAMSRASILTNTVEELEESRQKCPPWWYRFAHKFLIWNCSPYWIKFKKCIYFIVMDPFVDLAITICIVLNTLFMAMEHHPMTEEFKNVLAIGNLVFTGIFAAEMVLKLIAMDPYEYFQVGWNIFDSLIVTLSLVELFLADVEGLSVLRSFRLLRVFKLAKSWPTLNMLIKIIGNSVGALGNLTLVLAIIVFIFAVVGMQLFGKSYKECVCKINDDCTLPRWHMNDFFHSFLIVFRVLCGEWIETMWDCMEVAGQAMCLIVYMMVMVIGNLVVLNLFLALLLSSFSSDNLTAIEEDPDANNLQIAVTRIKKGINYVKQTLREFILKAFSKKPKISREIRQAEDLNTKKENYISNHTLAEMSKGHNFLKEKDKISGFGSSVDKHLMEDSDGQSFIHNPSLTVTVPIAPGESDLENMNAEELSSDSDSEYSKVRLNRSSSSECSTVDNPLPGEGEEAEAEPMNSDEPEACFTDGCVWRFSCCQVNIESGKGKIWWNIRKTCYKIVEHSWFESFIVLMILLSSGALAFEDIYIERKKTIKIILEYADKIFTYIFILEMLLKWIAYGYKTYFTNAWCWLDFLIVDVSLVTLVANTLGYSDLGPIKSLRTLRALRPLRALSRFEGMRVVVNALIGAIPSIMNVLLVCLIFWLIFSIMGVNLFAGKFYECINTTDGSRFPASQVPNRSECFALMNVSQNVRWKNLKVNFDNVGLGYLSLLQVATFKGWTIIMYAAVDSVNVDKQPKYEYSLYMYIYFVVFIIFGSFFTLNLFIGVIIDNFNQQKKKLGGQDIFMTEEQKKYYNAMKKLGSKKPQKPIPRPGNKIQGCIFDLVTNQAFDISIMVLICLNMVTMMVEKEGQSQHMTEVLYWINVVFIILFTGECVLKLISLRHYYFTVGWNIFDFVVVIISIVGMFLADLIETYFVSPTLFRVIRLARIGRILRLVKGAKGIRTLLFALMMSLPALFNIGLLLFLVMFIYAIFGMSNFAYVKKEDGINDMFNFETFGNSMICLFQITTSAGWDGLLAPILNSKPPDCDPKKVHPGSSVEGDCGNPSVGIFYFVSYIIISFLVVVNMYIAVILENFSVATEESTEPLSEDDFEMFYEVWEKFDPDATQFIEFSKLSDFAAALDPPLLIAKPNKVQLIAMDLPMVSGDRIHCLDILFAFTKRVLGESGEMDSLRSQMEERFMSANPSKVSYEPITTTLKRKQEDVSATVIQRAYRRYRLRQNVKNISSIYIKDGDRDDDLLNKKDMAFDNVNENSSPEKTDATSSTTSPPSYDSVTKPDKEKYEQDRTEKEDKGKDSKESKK

Compared with `N#Cc1ccc(Oc2ccc(-c3cccc([C@H](O)CO)n3)cc2)c(C(F)(F)F)c1` [compound 22, (S)-4-(4-(6-(1,2-dihydroxyethyl)pyridin-2-yl)phenoxy)-3-(trifluoromethyl) benzonitrile], `N#Cc1ccc(Oc2ccc(-c3cccc([C@@H](O)CO)n3)cc2)c(C(F)(F)F)c1` [compound 11, (R)-4-(4-(6-(1,2-dihydroxyethyl)pyridin-2-yl)phenoxy)-3-(trifluoromethyl) benzonitrile] is 4.1-fold lower in IC50: 3.33 ± 0.2 µM for the first, 0.82 ± 0.09 µM for the second. The second is the more potent here.

First: O=C1NCCN1CCNCCc1cccc(-c2ccc(Oc3ccc(F)cc3)cc2)n1 [compound 64, 1-(2-((2-(6-(4-(4-fluorophenoxy)phenyl)pyridin-2-yl)ethyl)amino)ethyl) imidazolidin-2-one]
Second: OC[C@H](O)c1cc(NCCN2CCOCC2)cc(-c2ccc(Oc3ccc(F)cc3)cc2)n1 [compound 111]
The IC50 of the first is 7.1-fold lower: 0.1 ± 0.3 µM for the first, 0.71 ± 0.13 µM for the second. The first is the more potent here.

`N#Cc1cc(NCCCn2ccnc2)cc(-c2ccc(Oc3ccc(F)cc3)cc2)n1` [compound 110, 4-((3-(1H-imidazol)-1-yl)propyl)amino)-6-(4-(4-fluorophenoxy) phenylpicolinonitrile] and `NC(=O)c1cc(NCC2CCNCC2)cc(-c2ccc(Oc3ccc(F)cc3)cc2)n1` [compound 57, 6-(4-(4-fluorophenoxy)phenyl)-4-((piperidin-4-ylmethyl)amino) picolinamide] are within 1.5-fold of each other in IC50: 0.62 ± 0.08 µM for the first, 0.83 ± 0.02 µM for the second.

First: N#Cc1ccc(Oc2ccc(-c3cc([C@@H](O)CO)cc(C(N)=O)n3)cc2)cc1C(F)(F)F [compound 127, (R)-6-(4-(4-cyano-3-(trifluoromethyl)phenoxy)phenyl)-4-(1,2-dihydroxyethyl) picolinamide]
Second: OC[C@@H](O)c1cccc(-c2ccc(Oc3ccc(C(F)(F)F)cc3)cc2)n1 [compound 4, (S)-1-(6-(4-(4-(trifluoromethyl)phenoxy)phenyl)pyridin-2-yl)ethane-1,2-diol]
The IC50 of the first is 9.4-fold higher: 1.13 ± 0.11 µM for the first, 0.12 ± 0.02 µM for the second. The second is the more potent here.

First: CN(c1ccc(C(=O)O)cc1)c1cc(C(=O)O)nc(-c2ccc(Oc3ccc(F)cc3)cc2)c1 [compound 117, 4-((4-carboxyphenyl)(methy)amino)-6-(4-(4-fluorophenoxy)phenyl) picolinic acid]
Second: CN(c1ccc(C(=O)O)cc1)c1cc(-c2ccc(Oc3ccc(F)cc3)cc2)cc(C(=O)O)n1 [compound 120, 6-((4-carboxyphenyl) (methy)amino)-4-(4-(4-fluorophenoxy)phenyl) picolinic acid]
The IC50 of the first is higher: greater than 20 µM for the first, 9.3 ± 0.54 µM for the second.

Going from `N#Cc1ccc(Oc2ccc(-c3cccc(C(O)CO)n3)cc2)cc1` (stereo not shown) [compound 8, 4-(4-(6-(1,2-dihydroxyethyl)pyridin-2-yl)phenoxy) benzonitrile] to `OCC(O)c1cccc(-c2ccc(Oc3ccc(C(F)(F)F)cc3)cc2)n1` (stereo not shown) [compound 3, 1-(6-(4-(4-(trifluoromethyl)phenoxy)phenyl)pyridin-2-yl)ethane-1,2-diol], the IC50 falls from 0.47 ± 0.09 µM to 0.07 ± 0.01 µM (6.7-fold).

same assay, conditions: recombinant human Nav1.7 in HEK293 cells; CoroNa Green sodium dye; veratridine + scorpion venom; read-out: Nav1.7 IC50 (μM) ± SEM

First: NC(=O)c1cc(NCc2ncccn2)cc(-c2ccc(Oc3ccc(F)cc3)cc2)n1 [compound 49, 6-(4-(4-fluorophenoxy)phenyl)-4-((pyrimidin-2-ylmethyl)amino) picolinamide]
Second: NC(=O)c1cc(NC(CO)CO)cc(-c2ccc(Oc3ccc(F)cc3)cc2)n1 [compound 133, 4-((1,3-dihydroxypropan-2-yl)amino)-6-(4-(4-fluorophenoxy)phenyl) picolinamide]
The IC50 of the first is 31-fold lower: 0.1 ± 0.03 µM for the first, 3.08 ± 0.59 µM for the second.

`N#Cc1cccc2c1ccn2-c1cc(-c2ccc(Oc3ccc(F)cc3)cc2)cc(C(N)=O)n1` [compound 100, 6-(4-cyano-1H-indol-1-yl)-4-(4-(4-fluorophenoxy)phenyl) picolinamide] and `N#Cc1cccc2c1ccn2-c1cc(C(=O)O)nc(-c2ccc(Oc3ccc(F)cc3)cc2)c1` [compound 101, 4-(4-cyano-1H-indol-1-yl)-6-(4-(4-fluorophenoxy)phenyl) picolinic acid] are the same in IC50: 0.27 ± 0.03 µM for the first, 0.27 ± 0.08 µM for the second.

`N#CCCN(c1ccccc1)c1cc(-c2ccc(Oc3ccc(F)cc3)cc2)cc(C(N)=O)n1` [compound 115, 6-((2-cyanoethyl) (phenyl)amino)-4-(4-(4-fluorophenoxy)phenyl)picolinamide] and `CN(c1ccccc1)c1cc(-c2ccc(Oc3ccc(F)cc3)cc2)cc(C(N)=O)n1` [compound 113, 4-(4-(4-fluorophenoxy)phenyl)-6-(methyl(phenyl)amino)picolinamide] are within error of each other in IC50: 0.08 ± 0.03 µM for the first, 0.36 ± 0.8 µM for the second.

Going from `Cc1ccc(Oc2ccc(-c3cccc(C(O)CO)n3)cc2)cn1` (stereo not shown) [compound 27, 1-(6-(4-((6-methylpyridin-3-yl)oxy)phenyl)pyridin-2-yl)ethane-1,2-diol] to `OCC(O)c1cccc(-c2ccc(Oc3ncc(C(F)(F)F)cc3Cl)cc2)n1` (stereo not shown) [compound 15, 1-(6-(4-((3-chloro-5-(trifluoromethyl)pyridin-2-yl)oxy)phenyl)pyridin-2-yl) ethane-1,2-diol], the IC50 falls from greater than 20 µM to 1.42 ± 0.24 µM.

First: NC(=O)c1cc([C@@H](O)CO)cc(-c2ccc(Oc3cccc(OC(F)(F)F)c3)cc2)n1 [compound 164, 4-((R)-1,2-Dihydroxy-ethyl)-6-[4-(3-trifluoromethoxy-phenoxy)phenyl]-pyridine-2-carboxylic acid amide]
Second: NC(=O)c1cc([C@H](O)CO)cc(-c2ccc(Oc3ccc(OC(F)(F)F)cc3)cc2)n1 [compound 159, 4-((S)-1,2-Dihydroxy-ethyl)-6-[4-(4-trifluoromethoxy-phenoxy)phenyl]-pyridine-2-carboxylic acid amide]
The IC50 of the first is 1.6-fold higher: 0.49 ± 0.1 µM for the first, 0.3 ± 0.02 µM for the second. The second is the more potent here.

Compared with `CN(c1ccccc1)c1cc(-c2ccc(Oc3ccc(C#N)cc3)cc2)cc(C(N)=O)n1` [compound 146, 4-[4-(4-Cyano-phenoxy)-phenyl]-6-(methyl-phenyl-amino)-pyridine2-carboxylic acid amide], `CN(c1ccccc1)c1cc(C(N)=O)nc(-c2ccc(Oc3ccc(C#N)cc3)cc2)c1` [compound 147, 6-[4-(4-Cyano-phenoxy)-phenyl]-4-(methyl-phenyl-amino)-pyridine-2-carboxylic acid amide] is 18-fold higher in IC50: 0.09 ± 0.004 µM for the first, 1.6 ± 0.26 µM for the second. The first is the more potent here.

First: NC(=O)c1cc(C[C@H](O)CO)cc(-c2ccc(Oc3ccc(F)cc3)cc2)n1 [compound 135, (S)-4-(2,3-dihydroxypropyl)-6-(4-(4-fluorophenoxy)phenyl)picolinamide]
Second: C[C@@H](O)[C@H](O)c1cc(C(N)=O)nc(-c2ccc(Oc3ccc(F)cc3)cc2)c1 [compound 131, 4-((1R,2R)-1,2-dihydroxypropyl)-6-(4-(4-fluorophenoxy)phenyl)picolinamide]
The IC50 of the first is 2.6-fold higher: 7.26 ± 0.34 µM for the first, 2.78 ± 0.46 µM for the second.

Compared with `CC(=O)c1ccc(Oc2ccc(-c3cccc(C(O)CO)n3)cc2)c(C(F)(F)F)c1` (stereo not shown) [compound 20, 1-(4-(4-(6-(1,2-dihydroxyethyl)pyridin-2-yl)phenoxy)-3-(trifluoromethyl)phenyl)ethanone], `NC(=O)c1cc(-c2ccc(Oc3ccc(F)cc3)cc2)nc([C@@H](O)CO)c1` [compound 89, (R)-2-(1,2-dihydroxyethyl)-6-(4-(4-fluorophenoxy)phenyl) isonicotinamide] is 2.4-fold higher in IC50: 2.95 ± 0.76 µM for the first, 7.13 ± 0.5 µM for the second.

Compared with `NC(=O)c1cc([C@@H](O)CO)cc(-c2cccc(Oc3ccc(F)cc3)c2)n1` [compound 142, 4-((R)-1,2-dihydroxy-ethyl)-6-[3-(4-fluoro-phenoxy)-phenyl]-pyridine-2-carboxylic acid amide], `NC(=O)c1cc([C@@H](O)CO)cc(-c2ccc(Oc3cc(Cl)ccc3F)cc2)n1` [compound 123, (R)-6-(4-(5-chloro-2-fluorophenoxy)phenyl)-4-(1,2-dihydroxyethyl) picolinamide] is 31-fold lower in IC50: 5.3 ± 1.6 µM for the first, 0.17 ± 0.03 µM for the second. The second is the more potent here.

Compared with `NC(=O)c1cc(CN2CCN(CC(=O)O)CC2)cc(-c2ccc(Oc3ccc(F)cc3)cc2)n1` [compound 104, 2-(4-((2-carbamoyl-6-(4-(4-fluorophenoxy)phenyl)pyridine-4-yl)methyl)piperazin-1-yl) acetic acid], `NC(=O)c1cc(NCCN2CCOCC2)cc(-c2ccc(Oc3ccc(F)cc3)cc2)n1` [compound 53, 6-(4-(4-fluorophenoxy)phenyl)-4-((2-morpholinoethyl)amino) picolinamide] is 12-fold lower in IC50: 2.7 ± 0.26 µM for the first, 0.22 ± 0.06 µM for the second.

`C[C@H](NCc1cccc(-c2ccc(Oc3ccc(F)cc3)cc2)n1)C(N)=O` [compound 88, (S)-2-({6-[4-(4-Fluoro-phenoxyl)-phenyl]-pyridin-2-yl-methyl}-amino) propionamide] and `N#CCN(CCN1CCNC1=O)Cc1cccc(-c2ccc(Oc3ccc(F)cc3)cc2)n1` [compound 69, 2-(((6-(4-(4-fluorophenoxy)phenyl)pyridin-2-yl)methyl) (2-(2-oxoimidazolidin-1-yl)ethyl)amino) acetonitrile] are within error of each other in IC50: 0.23 ± 0.09 µM for the first, 0.19 ± 0.05 µM for the second.

Compared with `NC(=O)c1cc(-c2ccc(Oc3ccc(F)cc3)cc2)cc(NC(CO)CO)n1` [compound 128, 6-((1,3-dihydroxypropan-2-yl)amino)-4-(4-(4-fluorophenoxy)phenyl) picolinamide], `N#Cc1ccc(Oc2ccc(-c3cc([C@H](O)CO)cc(C(N)=O)n3)cc2)cc1` [compound 37, (S)-6-(4-(4-cyanophenoxy)phenyl)-4-(1,2-dihydroxyethyl) picolinamide] is 2.9-fold lower in IC50: 1.29 ± 0.17 µM for the first, 0.44 ± 0.1 µM for the second. The second is the more potent here.

Compared with `O=C(O)c1cc(-n2cc(C(=O)O)c3ccccc32)cc(-c2ccc(Oc3ccc(F)cc3)cc2)n1` [compound 93, 1-(2-carboxy-6-(4-(4-fluorophenoxy)phenyl)pyridin-4-yl)-1H-indole-3-carboxylic acid], `NC(=O)c1cc(N2CCN(C3=NCCCN3)CC2)cc(-c2ccc(Oc3ccc(F)cc3)cc2)n1` [compound 77, 6-(4-(4-fluorophenoxy)phenyl)-4-(4-(1,4,5,6-tetrahydropyrimidin-2-yl)piperazin-1-yl)picolinamide] is lower in IC50: greater than 20 µM for the first, 4.27 ± 0.69 µM for the second. The second is the more potent here.

First: NC(=O)c1cc(NCCN2CCS(=O)(=O)CC2)cc(-c2ccc(Oc3ccc(F)cc3)cc2)n1 [compound 48, 4-((2-(1,1-dioxidothiomorpholino)ethyl)amino)-6-(4-(4-fluorophenoxy)phenyl) picolinamide]
Second: O=C(c1cc(N2CCNCC2)cc(-c2ccc(Oc3ccc(F)cc3)cc2)n1)N1CCNCC1 [compound 78, (6-(4-(4-fluorophenoxy)phenyl)-4-(piperazin-1-yl)pyridin-2-yl) (piperazin-1-yl) methanone]
The IC50 of the first is lower: 0.09 ± 0.06 µM for the first, 10 to 20 µM for the second. The first is the more potent here.

From patent US9056832B2, “Pyridine compounds and the users thereof” (Purdue Pharma L.P., priority 2010, dated 2015)
